This is an account of results in patent US6599499B1, “Uses of diterpenoid triepoxides as an anti-proliferative agent” (priority 1999, dated 2003).

Assay [1] concerns HT1080 tumor cells. The assay is described as follows: Nude mouse xenograft, established HT1080 tumors. It is filed as in vivo, nude mice. The conditions noted are these: PG490-88 0.75 mg/kg IP days 0-5 and 7-11, CPT-11 11 mg/kg IV days 1, 5, 9. The protocol: Mice. […] Nude mouse xenograft model. HT1080 tumor cells were grown in tissue culture flasks and harvested using EDTA and trypsin. Cells were centrifuged and the concentration of viable cells was appropriately adjusted. […] Tumor size was monitored after tumor cell implantation by measuring the width, length and thickness of the tumors and using a formula to calculate the volume. […] Control mice were left untreated. […] Combination therapy mice received both PG490-88 and CPT-11 treatments.

Assay [2] relates to HT1080 cells. The experiment in a line: Apoptosis by Annexin V and Propidium Iodide staining, HT1080 cells. Type of assay: cell-based, human. Further details: unit of the concentration uncertain. To be noted: HT1080, 20 h, PG490 pretreatment 4 h then CPT-11 16 h. The procedure: HT1080 cells were treated as shown and harvested for analysis of apoptosis by Annexin V and Propidium Iodide staining 20 h after treatment. In experiments with a combination of PG490 and CPT-11, cells were pretreated with PG490 for 4 h followed by the addition of CPT-11 for 16 h.

Assay [3] has as its system HT-29 human colon cancer cell line tumors. The experiment in a line: Nude mouse xenograft, established HT-29 colon cancer tumors. Type of assay: in vivo, nude mice. The protocol: HT-29 tumor cells grown in tissue culture were harvested and implanted intradermally on the backs of nude mice. Tumor size was monitored by measuring the dimensions of each tumor and calculating tumor volume with a formula. […] PG490-88 treatment at 0.25 mg/kg was administered daily i.p. 5 days per week for 2 weeks. Navelbine at 10 mg/kg was given i.v. on days 0 and 7. Mice in the combination treatment group received PG490-88 i.p. and Navelbine i.v. at the appropriate times. The treatments were given to mice at 100 μl per 10 g of mouse body weight. Tumor dimensions were measured periodically for calculation of tumor volumes. […] The data are presented as mean percent change in tumor volume from day 0 for each treatment group. Toxicity of the treatment was monitored by weighing the mice daily 5 days per week. In FIG. 8, a comparison is provided for tumor volumes on Days 0 and 14. Tumor dimensions were measured periodically for calculation of tumor volumes, and the final determinations were made on day 14.

Assay [4] deals with H23 human tumor cells. To be noted: day 14; PG490-88 0.25 mg/kg/day; taxol 10 mg/kg/day; IP. The procedure: Cell death reagents and assays. Cell viability was measured by an MTT assay as recently described (Lee et al. (1999) J. Biol. Chem. 274:13451-13455. z-VAD-fluoromethylketone (z-VAD.fmk) was obtained from Alexis Biochemicals, San Diego, Calif. The effect of z-VAD.fmk on cell viability was analyzed by annexin and propidium iodide staining followed by FACS analysis according to the manufacturer's protocol (Clontech Laboratories, Palo Alto, Calif.). The analysis of apoptosis in histologic sections was done by terminal deoxynucleotidyl transferase (TdT)-mediated d-UTP nick end labeling (TUNEL) of slides from paraffin sections of day 3 tumors harvested from the mice 24 h after the second of two daily treatments with PG490-88 or saline. TUNEL staining was done according to the manufacturer's protocol (Boehringer Mannheim, Indianapolis, Ind.) and then the histology slides were counterstained with methyl green. DNA was isolated from cells for analysis of internucleosomal DNA laddering followed by agarose gel electrophoresis and ethidium bromide staining.
Nude mouse xenograft model. Female NCr nude mice were purchased from Taconic, Germantown, N.Y., and were generally 20-24 grams when used. Mice were kept in autoclaved filter-top microisolator cages with autoclaved water and sterile food ad lib. The cages were maintained in an isolator unit providing filtered air (Lab Products, Inc., Maywood, N.J.). Tumor cells were grown and harvested as described above. NCr nude mice were injected intradermally with 5×10^6 tumor cells. In some experiments, treatment was initiated on the day of tumor cell implantation. […] Mice were treated IP daily for 5 days per week.
H23 tumor cells were implanted intradermally in nude mice. When the tumors reached approximately 100 mm^3, daily IP treatment with PG490-88 was initiated. […] The data in FIG. 3 represents the measurement of H23 tumor volume on day 14 after the initiation of treatment. Nude mice bearing xenografts of H23 human tumor cells were treated daily as shown. The data represent the means and the standard errors of the means of the tumor volumes as percent of the day 0 tumor volumes for each animal measured day 3, 6, 10 and 14 days after the initiation of treatment. There were 5 mice per group.

In assay [5] the test system is Dx5 cells. The conditions noted are these: cited from earlier work.

In the case of `CCc1c2c(nc3ccc(OC(=O)N4CCC(N5CCCCC5)CC4)cc13)-c1cc3c(c(=O)n1C2)COC(=O)[C@]3(O)CC` [CPT-11, irinotecan, reference compound], in assay [1], the “TV Mean Day 4” value was determined as 157, the “TV Mean Day 7” value is 209, the “TV Mean Day 10” value was 268 and the “TV Mean Day 14” value was found to be 495. In addition, the “TV Mean Day 0” value in assay [1] (baseline) is reported as 107. Besides, the “Apoptotic Cells (%)” value in assay [2] (CPT-11 (10 µM) alone, (10 μM) in combination with PG490 5 ng/ml) is recorded as 5%. Also, the “Apoptotic Cells (%)” value in assay [2] (PG490 5 ng/ml, CPT-11 (5 µM) alone, (5 μM) in combination) worked out at 0%.

For `CCC1=C[C@@H]2CN(C1)Cc1c([nH]c3ccccc13)[C@@](C(=O)OC)(c1cc3c(cc1OC)N(C)[C@H]1[C@@](O)(C(=O)OC)[C@H](OC(C)=O)[C@]4(CC)C=CCN5CC[C@]31[C@@H]54)C2` [Navelbine, vinorelbine, reference compound], the “increase in tumor volume from day 0 by day 14” value in assay [3] (PG490-88 0.25 mg/kg i.p. 5 days per week for 2 weeks, Navelbine 10 mg/kg i.v. days 0 and 7) worked out at 343%. Also, in assay [3] (baseline at grouping, before treatment), the “Day 0 Tumor Volume (mm^3) Mean” value came to 109 mm^3.

In the case of `CC(=O)O[C@H]1C(=O)[C@@]2(C)[C@H]([C@H](OC(=O)c3ccccc3)[C@]3(O)C[C@H](OC(=O)[C@H](O)[C@@H](NC(=O)c4ccccc4)c4ccccc4)C(C)=C1C3(C)C)[C@]1(OC(C)=O)CO[C@@H]1C[C@@H]2O` [taxol, reference compound], the “tumor volume as % of the vehicle control” value in assay [4] came out at 42%. The “fold more resistant than the MES-SA parent cell line” value in assay [5] is 1000 fold.
